Paper PMC7762046, “Fragments of a Wheat Hevein-Like Antimicrobial Peptide Augment the Inhibitory Effect of a Triazole Fungicide on Spore Germination of Fusarium oxysporum and Alternaria solani” (Antibiotics, 2020)
Read-outs that look alike come from different tables or passages of the source. Marks after values point to notes of the source that are not given here. Residues, ends and D or L forms follow the SMILES beside them.

Legend:
[1] = system: F. oxysporum; type: cell-based, Fusarium oxysporum f. sp. lycopersici (strain F37)
Protocol: In the first series of these experiments, we tested the inhibitory effect of the fragments against F. oxysporum and compared the inhibitory activity of the fragments to each other and to the entire WAMP-2 peptide. Microconidia of the pathogen were treated to each of the WAMP-2 fragments taken at three or four concentrations ranging between 50 and 200 (WAMP-N, WAMP-G2), 100 and 400 (WAMP-G1), or 50 and 400 (WAMP-C) µg/mL. […] After the treatments, the rate of germinated conidia was determined, expressed as the percent relative to the total number of conidia counted (500 ones per treatment). Effective doses (EDs) providing a 50% or 99.9% inhibition were calculated by probit analysis. The performed analysis confirmed our previous data on the antifungal activity of WAMP-2-derived fragments towards the Fusarium wilt agent.
(§1) The inhibitory effect of synthesized peptides on conidial germination of fungi was assessed by a microtiterplate assay. Fungal conidia were added to WAMP-2-derived peptides, already dissolved in SDW, to prepare suspensions having final concentrations of 10^5 microconidia/mL (F. oxysporum) or 3 × 10^4 macroconidia/mL (A. solani). Resulting suspensions were incubated at 20–22 °C overnight in wells of 96-well microtiter plates. Control suspensions (with the same final concentrations of conidia) were prepared using SDW. Thereafter, germinated and non-germinated conidia (500 ones of each pathogen per treatment) were counted in treated and control suspensions using an inverted microscope. The average number of conidia germinated in these suspensions was calculated and expressed as the percent of the total number of the counted conidia. In addition, percent germination inhibition in the treated conidia, relative to germination in controls, was determined and indicated as levels of the inhibitory effect in Table 2 and Table 3. Oligopeptides were tested at final concentrations of 50, 100, 200, and 400 µg/mL, which were selected based on previous results of testing of the same WAMP-2-derived peptides for the ability to inhibit spore germination in other Fusarium and Alternaria species.
Inhibitory concentrations of the peptides providing in vitro 50% or 99% in vitro suppression of conidial germination (ED50, and ED99, respectively) were determined by the probit analysis with the involvement of a linear regression. In a regression equation (Y = ax + b) used in probit analyses, Y is the probit value for 50% or 99% inhibition levels, x values are decimal logarithms of the correspondent concentrations, and a and b represent regression coefficients. The calculated ED99 values from the probit analysis were considered as the minimum fungicidal concentration (MFC), i.e., the lowest concentration of a peptide, used alone, resulting in […] inhibition of conidial germination.
For each of the two pathogens, microtiter plate tests with synthesized peptides included three independent experimental series. Each experiment included 5 replications of each treatment, 100 conidia per each one (n = 500). […] Mean values, standard deviations, standard errors, as well as significant differences from controls and between treatments (t-test for independent variables, p ≤ 0.05), were calculated using STATISTICA v. […] Approximation of confidence values (R^2) and regression coefficients were determined using statistical functions of Microsoft Excel 2013 (Microsoft Corp. Redmond, WA, USA).

[2] = system: A. solani; type: cell-based, Alternaria solani (strain MO-VNIIF-9-2018)
Protocol: as §1, with “Oligopeptides were tested at final concentrations of 50, 100, 200, and 400 µg/mL, which were selected based on previous results of testing of the same WAMP-2-derived peptides for the ability to inhibit spore germination in other Fusarium and Alternaria species.” left out
For each of the two pathogens, microtiter plate tests with synthesized peptides included three independent experimental series. […] Mean values, standard deviations, standard errors, as well as significant differences from controls and between treatments (t-test for independent variables, p ≤ 0.05), were calculated using STATISTICA v. […]

[3] = system: F. oxysporum; type: cell-based, Fusarium oxysporum f. sp. lycopersici (strain F37); conditions: for Expected additive inhibitory effect (Ee), peptide combined with Folicur: calculated by Limpel's formula
Protocol: (§2) The assays were performed in 96-well microtiter plates, using a “checkerboard” design. Fungal conidia were treated with either Folicur® or peptide fragments, each alone, and, in parallel, were subjected to combined treatments wherein the fungicide and one of the WAMP-2-derived peptides were mixed in the same concentration as when used alone. […] However, enhancement potency varied depending on the pathogen, the WAMP fragment, and co-applied concentrations of the WAMP-2 fragments and Folicur®.
as §1
(§3) In vitro tests involving pathogen sensitization to Folicur® EC 250 were designed under the principle of a microdilution checkerboard assay. Fungal conidia were incubated in 96-well plates in mixtures of the fungicide and each of the peptides at the above-mentioned concentrations in parallel with conidia’ incubation in the solutions of Folicur® or the oligopeptides, alone, used at the same final concentrations as in the mixtures.
(§4) To reveal oligopeptide/fungicide synergy, the Limpel criterion Ee < Er was determined by Formula (1):Ee,% = (X + Y) − XY/100 < Er,% (at p ≤ 0.05),(1) where Ee is the level of an expected additive effect from application of both test compounds; X and Y represent inhibition of the spore germination in % by each antifungal agent used alone; and Er is the percentage of actual inhibition obtained experimentally by co-application of X and Y.
(§5) For each of the two pathogens, microtiter plate tests with synthesized peptides included three independent experimental series. Each experiment included 5 replications of each treatment, 100 conidia per each one (n = 500). Experiments evaluating the sensitizing activity of the tested peptides on leaf disks and detached tomato seedlings were additionally repeated twice. Mean values, standard deviations, standard errors, as well as significant differences from controls and between treatments (t-test for independent variables, p ≤ 0.05), were calculated using STATISTICA v. 6.1 software (StatSoft Inc., Tulsa, OK, USA). Approximation of confidence values (R^2) and regression coefficients were determined using statistical functions of Microsoft Excel 2013 (Microsoft Corp. Redmond, WA, USA).

[4] = system: A. solani; type: cell-based, Alternaria solani (strain MO-VNIIF-9-2018); remark: listed apart in the source
Protocol: as §2, §1, §3, §4, §5

In the case of `N=C(N)NCCC[C@H](NC(=O)[C@H](CS)NC(=O)CNC(=O)[C@H](CCCNC(=N)N)NC(=O)[C@H](CS)NC(=O)[C@H](CCC(N)=O)NC(=O)[C@H](CO)NC(=O)[C@H](CCC(N)=O)NC(=O)[C@H](CS)NC(=O)[C@H](CO)NC(=O)CNC(=O)[C@H](CCCCN)NC(=O)CN)C(=O)O` [WAMP-C] (H-GKGSCQSQCRGCR-OH), the “ED99 (MFC)” value [1] is reported as 106.9 ^d µg/mL, the “ED99 (MFC)” value [2] is reported as 53.4 ^g µg/mL and the “Inhibitory effect on conidial germination (Er), peptide alone” value (“Inhibitory effect … peptide alone” for short) ([3]; 50 µg/mL) is reported as 4.3 ^a %. The “Inhibitory effect … peptide alone” value ([3]; 100 µg/mL) was 6.2 ^b %, the “Inhibitory effect … peptide alone” value ([3]; 200 µg/mL) was 8.6 ^c % and the “Inhibitory effect … peptide alone” value ([3]; 400 µg/mL) was 11.6 ^c %. For the same compound, the “Inhibitory effect … peptide alone” value ([4]; 100 µg/mL) was 19.0 ^a %, the “Inhibitory effect … peptide alone” value ([4]; 200 µg/mL) was 31.0 ^b % and the “Inhibitory effect … peptide alone” value ([4]; 400 µg/mL) was 48.2 ^c %.

In the case of `CC(C)C[C@H](N)C(=O)N[C@@H](CS)C(=O)N[C@@H](CS)C(=O)NCC(=O)N[C@@H](CCCCN)C(=O)N[C@@H](Cc1ccc(O)cc1)C(=O)NCC(=O)N[C@@H](Cc1ccccc1)C(=O)N[C@@H](CS)C(=O)NCC(=O)N[C@@H](CO)C(=O)NCC(=O)O` [WAMP-G1] (H-LCCGKYGFCGSG-OH), the “ED99 (MFC)” value [1] is reported as >10,000 µg/mL, the “ED99 (MFC)” value [2] is reported as 3980.0 ^f µg/mL and the “Inhibitory effect … peptide alone” value ([3]; 100 µg/mL) is reported as 1.1 ^a %. For the same compound, the “Inhibitory effect … peptide alone” value ([3]; 200 µg/mL) was 8.0 ^b %, the “Inhibitory effect … peptide alone” value ([3]; 400 µg/mL) was 17.5 ^c % and the “Inhibitory effect … peptide alone” value ([4]; 100 µg/mL) was 2.0 ^a %. For the same compound, the “Inhibitory effect … peptide alone” value ([4]; 200 µg/mL) was 9.8 ^b % and the “Inhibitory effect … peptide alone” value ([4]; 400 µg/mL) was 21.9 ^c %.

For `C[C@H](N)C(=O)N[C@@H](CCC(N)=O)C(=O)N[C@@H](CCCNC(=N)N)C(=O)N[C@@H](CS)C(=O)NCC(=O)N[C@@H](CC(=O)O)C(=O)N[C@@H](CCC(N)=O)C(=O)N[C@@H](C)C(=O)N[C@@H](CCCNC(=N)N)C(=O)NCC(=O)N[C@@H](C)C(=O)N[C@@H](CCCCN)C(=O)N[C@@H](CS)C(=O)O` [WAMP-N] (H-AQRCGDQARGAKC-OH), the “ED99 (MFC)” value [1] was 22.7 µg/mL, the “Inhibitory effect … peptide alone” value ([3]; 50 µg/mL) was 12.3 ^a % and the “Inhibitory effect … peptide alone” value ([3]; 100 µg/mL) was 23.1 ^b %. For the same compound, the “Inhibitory effect … peptide alone” value ([3]; 200 µg/mL) was 42.7 ^c %.

For “CCGKYGFCGSGDAYC [WAMP-G2, chemically synthesized fragment (residues 18–32) from the central region of WAMP-2]”, the ED50 ([1]; 50% inhibition of microconidia germination, probit analysis, SDW, overnight 20–22 °C) was 0.35 ^a µg/mL, the “ED99 (MFC)” value ([1]; lowest concentration giving 99.9% inhibition of conidial germination, probit analysis) was 35.1 ^b µg/mL and the “Expected additive inhibitory effect (Ee), peptide combined with Folicur” value (from here on “Expected additive inhibitory effect (Ee)”) ([3]; peptide 50 µg/mL + Folicur 0.005 µg/mL) was 14.5%. For the same compound, the “Observed inhibitory effect (Er), peptide combined with Folicur” value (shortened to “Observed inhibitory effect (Er)”) ([3]; peptide 50 µg/mL + Folicur 0.005 µg/mL, mean of 3 experiments) was 27.8 ^b %, the “Expected additive inhibitory effect (Ee)” value ([3]; peptide 50 µg/mL + Folicur 0.01 µg/mL) was 24.8% and the “Observed inhibitory effect (Er)” value ([3]; peptide 50 µg/mL + Folicur 0.01 µg/mL, mean of 3 experiments) was 36.4 ^b %. For the same compound, the “Expected additive inhibitory effect (Ee)” value ([3]; peptide 50 µg/mL + Folicur 0.05 µg/mL) was 33.0%, the “Observed inhibitory effect (Er)” value ([3]; peptide 50 µg/mL + Folicur 0.05 µg/mL, mean of 3 experiments) was 47.4 ^b % and the “Inhibitory effect … peptide alone” value ([3]; peptide 50 µg/mL, Folicur 0.0 µg/mL, SDW, overnight 20–22 °C, mean of 3 experiments) was 7.0 ^a %. The “Expected additive inhibitory effect (Ee)” value ([3]; peptide 100 µg/mL + Folicur 0.005 µg/mL) was 28.8%, the “Observed inhibitory effect (Er)” value ([3]; peptide 100 µg/mL + Folicur 0.005 µg/mL, mean of 3 experiments) was 49.3 ^c % and the “Expected additive inhibitory effect (Ee)” value ([3]; peptide 100 µg/mL + Folicur 0.01 µg/mL) was 37.7%. The “Observed inhibitory effect (Er)” value ([3]; peptide 100 µg/mL + Folicur 0.01 µg/mL, mean of 3 experiments) was 53.1 ^c %, the “Expected additive inhibitory effect (Ee)” value ([3]; peptide 100 µg/mL + Folicur 0.05 µg/mL) was 44.1% and the “Observed inhibitory effect (Er)” value ([3]; peptide 100 µg/mL + Folicur 0.05 µg/mL, mean of 3 experiments) was 56.8 ^c %. For the same compound, the “Inhibitory effect … peptide alone” value ([3]; peptide 100 µg/mL, Folicur 0.0 µg/mL, SDW, overnight 20–22 °C, mean of 3 experiments) was 22.4 ^b %, the “Expected additive inhibitory effect (Ee)” value ([3]; peptide 200 µg/mL + Folicur 0.005 µg/mL) was 41.8% and the “Observed inhibitory effect (Er)” value ([3]; peptide 200 µg/mL + Folicur 0.005 µg/mL, mean of 3 experiments) was 62.6 ^d %. The “Expected additive inhibitory effect (Ee)” value ([3]; peptide 200 µg/mL + Folicur 0.01 µg/mL) was 47.1%, the “Observed inhibitory effect (Er)” value ([3]; peptide 200 µg/mL + Folicur 0.01 µg/mL, mean of 3 experiments) was 74.8 ^d % and the “Expected additive inhibitory effect (Ee)” value ([3]; peptide 200 µg/mL + Folicur 0.05 µg/mL) was 52.7%. The “Observed inhibitory effect (Er)” value ([3]; peptide 200 µg/mL + Folicur 0.05 µg/mL, mean of 3 experiments) was 87.1 ^d % and the “Inhibitory effect … peptide alone” value ([3]; peptide 200 µg/mL, Folicur 0.0 µg/mL, SDW, overnight 20–22 °C, mean of 3 experiments) was 34.1 ^c %.
